In US6472348B1, “Pyridone derivatives and herbicides” (Kumiai Chemical Industry Co., Ltd., priority 1996, dated 2002):
One block for each compound: values may come before it.

Experiments:
[1] = tested on: Diaitaria ciliaris (Di); assay: Test Example 4: crop plant selectivity by upland field soil treatment (cotton), herbicidal effects; type: in vivo; conditions: evaluated 21st day after application
Description: (§1) (Test on Crop Plant Selectivity by Upland Field Soil Treatment)
In a plastic pot (surface area: 600 cm^2) filled with sand, cotton (Go), Diaitaria ciliaris (Di), green foxtail (Se), pale smartweed (Po), slender amaranth (Am), common lambsquarters (Ch) and China jute (Ab) were sown and covered with soil. […] The plants were then cultured in a green house, and the evaluation of the herbicidal effects and phytotoxicity was conducted on the 21st day after the application in accordance with the standards as identified in Table 47. Symbol—represents “not tested”.

[2] = tested on: Diaitaria ciliaris (Di); assay: Test Example 5: crop plant selectivity by upland field soil treatment (wheat), herbicidal effects; type: in vivo; conditions: 21st day after application
Description: as §1
In a plastic pot (surface area: 600 cm^2) filled with sand, wheat (Tr), Diaitaria ciliaris (Di), green foxtail (Se), pale smartweed (Po), slender amaranth (Am), common lambsquarters (Ch) and China jute (Ab) were sown and covered with soil. […] The plants were then cultured in a green house, and the evaluation of the herbicidal effects and phytotoxicity was conducted on the 21st day after the application in accordance with the standards as identified in Table 47. Symbol—represents “not tested”.

[3] = tested on: Diaitaria ciliaris (Di); assay: Test Example 6: crop plant selectivity by upland field soil treatment (soybean), herbicidal effects; type: in vivo; conditions: 21st day after application
Description: as §1
(§2) In a plastic pot (surface area: 600 cm^2) filled with sand, soybean (Gl), Diaitaria ciliaris (Di), green foxtail (Se), Johnsongrass (So), pale smartweed (Po), slender amaranth (Am), common lambsquarters (Ch) and China jute (Ab) were sown and covered with soil. […] The plants were then cultured in a green house, and the evaluation of the herbicidal effects and phytotoxicity was conducted on the 21st day after the application in accordance with the standards as identified in Table 47. Symbol—represents “not tested”.

[4] = tested on: Johnsongrass (So); assay: as above; type: in vivo; conditions: 21st day after application
Description: as §1, §2

[5] = tested on: soybean (Gl); assay: Test Example 10: crop plant selectivity by upland field foliage treatment (soybean), phytotoxicity; conditions: dose 1.6 g ai/10a, 14th day after treatment
Description: (§3) (Test on Crop Plant Selectivity by Upland Field Foliage Treatment)
(§4) In a plastic pot (surface area: 600 cm^2) filled with sand, soybean (Gl), pale smartweed (Po), slender amaranth (Am), common lambsquarters (Ch) and China jute (Ab) were sown and cultured in a green house for 2 weeks. […] The plants were then cultured in a green house, and the evaluation of the herbicidal effects and phytotoxicity was conducted on the 14th day after the treatment in accordance with the standards as identified in Table 47.

[6] = tested on: slender amaranth (Am); assay: Test Example 10: crop plant selectivity by upland field foliage treatment (soybean), herbicidal effects; type: in vivo; conditions: dose 1.6 g ai/10a, 14th day after treatment
Method in brief: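 Soybean and weeds were grown in sand in a greenhouse for 2 weeks before foliar treatment. Herbicidal effect on weeds and phytotoxicity on soybean were scored on day 14 after treatment against a graded scale.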

[7] = tested on: cotton (Go); assay: Test Example 8: crop plant selectivity by upland field foliage treatment (cotton), phytotoxicity; type: in vivo; conditions: dose 1.6 g ai/10a, 14th day after treatment
Description: as §3
as §4, with “cotton (Go),” for “soybean (Gl),”

[8] = tested on: China jute (Ab); assay: Test Example 8: crop plant selectivity by upland field foliage treatment (cotton), herbicidal effects; type: in vivo; conditions: dose 1.6 g ai/10a, 14th day after treatment
Description: as §3
as §4, with “cotton (Go),” for “soybean (Gl),”

[9] = tested on: common lambsquarters (Ch); assay: as above; type: in vivo; conditions: dose 1.6 g ai/10a, 14th day after treatment
Description: as §3
as §4, with “cotton (Go),” for “soybean (Gl),”

[10] = tested on: pale smartweed (Po); assay: as above; type: in vivo; conditions: dose 1.6 g ai/10a, 14th day after treatment
Description: as §3
as §4, with “cotton (Go),” for “soybean (Gl),”

[11] = tested on: slender amaranth (Am); assay: as above; type: in vivo; conditions: dose 1.6 g ai/10a, 14th day after treatment
Description: as §3
as §4, with “cotton (Go),” for “soybean (Gl),”

Structure (SMILES): C#CC(C)Oc1cc(-c2cn(C)c(C(F)(F)F)cc2=O)c(F)cc1Cl (racemic) [Compound 6-10]
- Herbicidal effects Di ([1]; dose 1.6 g ai/10 a): 5
- Herbicidal effects Di ([1]; dose 6.3 g ai/10 a): 5
- Herbicidal effects Di ([2]; dose 1.6 g ai/10a): 5
- Herbicidal effects Di ([3]; dose 1.6 g ai/10a): 5
- Herbicidal effects So ([4]; dose 1.6 g ai/10a): 5

Structure (SMILES): COc1cc(-c2ccc(C(F)(F)F)n(C)c2=O)c(F)cc1Cl [1-15]
- Herbicidal effects Di ([1]; dose 6.3 g ai/10 a): 5

Structure (SMILES): Cn1c(C(F)(F)F)ccc(-c2cc(OCCCl)c(Cl)cc2F)c1=O [1-171]
- Phytotoxicity Gl [5]: 2
- Herbicidal effects Am [6]: 5

Structure (SMILES): C=CC(C)Oc1cc(-c2ccc(C(F)(F)F)n(C)c2=O)c(F)cc1Cl (centres unmarked) [Compound 1-182]
- Phytotoxicity Go [7]: 2
- Herbicidal effects Ab [8]: 5
- Herbicidal effects Ch [9]: 5
- Herbicidal effects Po [10]: 5
- Herbicidal effects Am [11]: 5

Structure (SMILES): CCON=Cc1cc(-c2ccc(C(F)(F)F)n(C)c2=O)c(F)cc1Cl [Compound 1-187]
- Phytotoxicity Go [7]: 2
- Herbicidal effects Ab [8]: 5
- Herbicidal effects Ch [9]: 5
- Herbicidal effects Po [10]: 5
- Herbicidal effects Am [11]: 5
- Phytotoxicity Gl [5]: 2
- Herbicidal effects Am [6]: 5

Structure (SMILES): CSCOc1cc(-c2ccc(C(F)(F)F)n(C)c2=O)c(F)cc1Cl [Compound 1-208]
- Phytotoxicity Gl [5]: 2
- Herbicidal effects Am [6]: 5

Structure (SMILES): C=CCN1C(=O)COc2cc(F)c(-c3ccc(C(F)(F)F)n(C)c3=O)cc21 [Compound 2-7]
- Herbicidal effects Di ([1]; dose 1.6 g ai/10 a): 5
- Herbicidal effects Di ([1]; dose 6.3 g ai/10 a): 5
- Herbicidal effects Di ([2]; dose 1.6 g ai/10a): 5
- Herbicidal effects Di ([3]; dose 1.6 g ai/10a): 5
- Herbicidal effects Di ([3]; dose 6.3 g ai/10a): 5
- Herbicidal effects So ([4]; dose 1.6 g ai/10a): 5
- Herbicidal effects So ([4]; dose 6.3 g ai/10a): 5

Structure (SMILES): CCCc1cc2c(-c3ccc(C(F)(F)F)n(C)c3=O)c(F)cc(Cl)c2o1 [Compound 4-3]
- Phytotoxicity Gl [5]: 2
- Herbicidal effects Am [6]: 5

Structure (SMILES): CCc1cc2c(Cl)cc(F)c(-c3ccc(C(F)(F)F)n(C)c3=O)c2o1 [Compound 5-2]
- Phytotoxicity Gl [5]: 2
- Herbicidal effects Am [6]: 5

- melting point: 180 to 181 °C
Structure (SMILES): Cn1c(C(F)(F)F)ccc(-c2cc(C#N)c(Cl)cc2F)c1=O [Compound No. 1-119, 3-(4-chloro-5-cyano-2-fluorophenyl)-1-methyl-6-trifluoromethyl-2(1H)-pyridone]
- Phytotoxicity Gl [5]: 2
- Herbicidal effects Am [6]: 5

Structure (SMILES): CCCC(=O)c1cc(-c2ccc(C(F)(F)F)n(C)c2=O)c(F)cc1Cl [Compound No. 1-194, 3-[4-chloro-2-fluoro-5-(1-oxobutyl)phenyl]-1-methyl-6-trifluoromethyl-2(1H)-pyridone]
- Phytotoxicity Go [7]: 2
- Herbicidal effects Ab [8]: 5
- Herbicidal effects Ch [9]: 5
- Herbicidal effects Po [10]: 5
- Herbicidal effects Am [11]: 5

Structure (SMILES): C#CCN1C(=O)COc2cc(F)c(-c3ccc(C(F)(F)F)n(C)c3=O)cc21 [Compound No. 2-1, 3-[7-fluoro-2,3-dihydro-4-(2-propynyl)-1,4-benzoxazin-3-on-6-yl]-1-methyl-6-trifluoromethyl-2(1H)-pyridone]
- Herbicidal effects Di ([1]; dose 1.6 g ai/10 a): 5
- Herbicidal effects Di ([2]; dose 1.6 g ai/10a): 5
- Herbicidal effects Di ([3]; dose 1.6 g ai/10a): 5
- Herbicidal effects Di ([3]; dose 6.3 g ai/10a): 5
- Herbicidal effects So ([4]; dose 1.6 g ai/10a): 5
- Herbicidal effects So ([4]; dose 6.3 g ai/10a): 5

- melting point: 150 to 151 °C
Structure (SMILES): C#CCn1c(=O)sc2cc(F)c(-c3ccc(C(F)(F)F)n(C)c3=O)cc21 [Compound No. 3-1, 3-[6-fluoro-3-(2-propynyl)-benzothiazolin-2-on-5-yl]-1-methyl-6-trifluoromethyl-2(1H)-pyridone]

- melting point: 136 to 137 °C
Structure (SMILES): COCc1cc2c(-c3ccc(C(F)(F)F)n(C)c3=O)c(F)cc(Cl)c2o1 [Compound No. 4-4, 3-(7-chloro-5-fluoro-2-methoxymethylbenzofuran-4-yl)-1-methyl-6-trifluoromethyl-2-(1H)-pyridone]

- melting point: 145 to 147 °C
Structure (SMILES): Cn1c(C(F)(F)F)ccc(-c2c(F)cc(Cl)c3oc(CO)cc23)c1=O [Compound No. 4-5, 3-(7-chloro-5-fluoro-2-hydroxymethylbenzofuran-4-yl)-1-methyl-6-trifluoromethyl-2-(1H)-pyridone]

- melting point: 178 to 179 °C
Structure (SMILES): Cn1c(C(F)(F)F)ccc(-c2c(F)cc(Cl)c3occc23)c1=O [Compound No. 4-28, 3-(7-chloro-5-fluorobenzofuran-4-yl)-1-methyl-6-trifluoromethyl-2-(1H)-pyridone]

- melting point: 159 to 161 °C
Structure (SMILES): Cn1cc(-c2cc(Oc3ccccc3)c(Cl)cc2F)c(=O)cc1C(F)(F)F [Compound No. 6-19, 5-(4-chloro-2-fluoro-5-phenoxyphenyl)-1-methyl-2-trifluoromethyl-4(1H)-pyridone]
- Herbicidal effects Di ([1]; dose 1.6 g ai/10 a): 5
- Herbicidal effects Di ([1]; dose 6.3 g ai/10 a): 5
- Herbicidal effects Di ([2]; dose 1.6 g ai/10a): 5
- Herbicidal effects Di ([2]; dose 6.3 g ai/10a): 5
- Herbicidal effects Di ([3]; dose 1.6 g ai/10a): 5
- Herbicidal effects Di ([3]; dose 6.3 g ai/10a): 5
- Herbicidal effects So ([4]; dose 1.6 g ai/10a): 4
- Herbicidal effects So ([4]; dose 6.3 g ai/10a): 5

- melting point: 208 to 211 °C
Structure (SMILES): Cc1cc2c(-c3cn(C)c(C(F)(F)F)cc3=O)c(F)cc(Cl)c2o1 [Compound No. 9-1, 5-(7-chloro-5-fluoro-2-methylbenzofuran-4-yl)-1-methyl-2-trifluoromethyl-4(1H)-pyridone]
- Herbicidal effects Di ([1]; dose 1.6 g ai/10 a): 5
- Herbicidal effects Di ([1]; dose 6.3 g ai/10 a): 5
- Herbicidal effects Di ([2]; dose 1.6 g ai/10a): 5
- Herbicidal effects Di ([2]; dose 6.3 g ai/10a): 5
